We go through 2 compounds from US10238661B2, “Fused, spirocyclic heteroaromatic compounds for the treatment of bacterial infections” (priority 2014, dated 2019).

Test [1] concerns Mycoplasma pneumoniae. Particulars: Mycoplasma pneumoniae ATCC 29342; CLSI M43-A acceptable QC range; cited from earlier work.
The subject of test [2] is Ureaplasma species. The following applies: Ureaplasma urealyticum ATCC 33175; CLSI M43-A acceptable QC range; cited from earlier work.
The test system of a further test is Mycoplasma genitalium. The test can be described thus: microbe, parasite or virus in culture. The test is classed as cell-based. The following applies: for MIC: Mycoplasmoides genitalium.
Test [3] has as its system Mycoplasma pneumoniae. Description: Broth microdilution MIC assay (CLSI M43-A), M. pneumoniae. The test is classed as cell-based. Particulars: for MIC: read-out: MIC.
For another test, the system named is Mycoplasma hominis. The test can be described thus: microbe, parasite or virus in culture. The test is classed as cell-based.
Test [4] concerns Ureaplasma species. The test can be described thus: microbe, parasite or virus in culture. The test is classed as cell-based, Ureaplasma urealyticum, Ureaplasma parvum.
The test system of another test is Burkholderia mallei. The test can be described thus: microbe, parasite or virus in culture. Type of test: cell-based.
The next test concerns Brucella abortus. The test can be described thus: microbe, parasite or virus in culture. The test is classed as cell-based.
The next test concerns Yersinia pestis. Description: microbe, parasite or virus in culture. Particulars: Yersinia pestis. The test is classed as cell-based.
The subject of a further test is Francisella tularensis. Description: microbe, parasite or virus in culture. The test is classed as cell-based. The following applies: Francisella tularensis.
In a further test the test system is Bacillus anthracis. The test can be described thus: microbe, parasite or virus in culture. The test is classed as cell-based. The following applies: Bacillus anthracis.
The test system of a further test is Brucella suis. The test can be described thus: microbe, parasite or virus in culture. The test is classed as cell-based.

In brackets after ≈: the same amount, converted by molar mass. Several values for one entry are separate records, joined by “and”; a condition that tells them apart may be missing. Equal values may be shown once. Read-outs that look alike come from different tables or passages of the source. Bounds are passed on as bounds.

On to `CC[C@H]1OC(=O)[C@H](C)[C@@H](O[C@H]2C[C@@](C)(OC)[C@@H](O)[C@H](C)O2)[C@H](C)[C@@H](O[C@@H]2O[C@H](C)C[C@H](N(C)C)[C@H]2O)[C@](C)(O)C[C@@H](C)C(=O)[C@H](C)[C@@H](O)[C@]1(C)O` [Erythromycin], for which the “MIC Limits for Quality Control Strain” value is 0.004 to 0.063 µg/mL in the test with Mycoplasma pneumoniae [1] and 1 to 8 µg/mL with Ureaplasma species [2].
Regarding `C[C@H]1COc2c(N3CCN(C)CC3)c(F)cc3c(=O)c(C(=O)O)cn1c23` [Levofloxacin], the “MIC Range” value was 0.5 to 2 µg/mL in the test with Mycoplasma genitalium; 0.5 to 1 µg/mL with Mycoplasma pneumoniae [3] (M. pneumoniae isolates, n = 12); 0.063 to 0.25 µg/mL against Mycoplasma hominis; 0.25 to 32 µg/mL in the test on Ureaplasma species [4]. Besides, the MIC against Mycoplasma genitalium came out at 0.5 µg/mL (≈ 1.38 µM); against Mycoplasma genitalium (ATCC33530), 2 µg/mL (≈ 5.53 µM); in the test on Mycoplasma genitalium (ATCC49895) it was 2 µg/mL (≈ 5.53 µM); with Mycoplasma genitalium (ATCC49899), 2 µg/mL (≈ 5.53 µM); in the test on Mycoplasma pneumoniae [3] (M. pneumoniae M-129 QC Strain ATCC 29342-B7) it was 1 µg/mL (≈ 2.77 µM); with Mycoplasma pneumoniae [3] (M. pneumoniae isolate 51494), 1 µg/mL (≈ 2.77 µM). Further, the MIC with Mycoplasma pneumoniae [3] (M. pneumoniae isolate 53706) is 0.5 µg/mL (≈ 1.38 µM); with Mycoplasma pneumoniae [3] (M. pneumoniae isolate 53938), 1 µg/mL (≈ 2.77 µM); in the test with Mycoplasma pneumoniae [3] (M. pneumoniae isolate 54484, macrolide-resistant) it was 0.5 µg/mL (≈ 1.38 µM); with Mycoplasma pneumoniae [3] (M. pneumoniae isolate 54506, macrolide-resistant), 0.5 µg/mL (≈ 1.38 µM); in the test on Mycoplasma pneumoniae [3] (M. pneumoniae isolate 55246) it was 1 µg/mL (≈ 2.77 µM); in the test on Mycoplasma pneumoniae [3] (M. pneumoniae isolate 55612) it was 0.5 µg/mL (≈ 1.38 µM). Besides, the MIC in the test on Mycoplasma pneumoniae [3] (M. pneumoniae isolate 57807) came out at 0.5 µg/mL (≈ 1.38 µM); with Mycoplasma pneumoniae [3] (M. pneumoniae isolate 58188), 0.5 µg/mL (≈ 1.38 µM); in the test on Mycoplasma pneumoniae [3] (M. pneumoniae isolate 58772), 1 µg/mL (≈ 2.77 µM); in the test with Mycoplasma pneumoniae [3] (M. pneumoniae isolate 59597) it was 0.5 µg/mL (≈ 1.38 µM); in the test with Mycoplasma pneumoniae [3] (M. pneumoniae isolate 59598), 1 µg/mL (≈ 2.77 µM); against Ureaplasma species [4] (Ureaplasma, ATCC33175), 1 µg/mL (≈ 2.77 µM). The MIC in the test with Burkholderia mallei is 0.5 µg/mL and 0.25 µg/mL; in the test on Brucella abortus, 0.25 µg/mL (≈ 0.692 µM); with Brucella abortus (Brucella abortus), 0.5 µg/mL (≈ 1.38 µM); against Yersinia pestis, at most 0.25 µg/mL; in the test with Francisella tularensis it was at most 0.125 µg/mL; in the test with Bacillus anthracis it was at most 0.25 µg/mL. Moreover, the MIC against Brucella suis stood at 0.25 µg/mL (≈ 0.692 µM); against Brucella suis (Brucella suis), 0.5 µg/mL (≈ 1.38 µM). Moreover, the MIC50 with Mycoplasma pneumoniae [3] (M. pneumoniae isolates, n = 12) turned out to be 0.5 µg/mL (≈ 1.38 µM); against Mycoplasma hominis (Metamycoplasma hominis) it was 0.125 µg/mL (≈ 0.346 µM); in the test with Ureaplasma species [4] (Ureaplasma) it was 1 µg/mL (≈ 2.77 µM). The MIC90 in the test on Mycoplasma pneumoniae [3] (M. pneumoniae isolates, n = 12) came to 1 µg/mL (≈ 2.77 µM); in the test on Mycoplasma hominis (Metamycoplasma hominis), 0.25 µg/mL (≈ 0.692 µM); against Ureaplasma species [4] (Ureaplasma), 8 µg/mL (≈ 22.1 µM).
